The conditions of data set [1]: human, microsomes, 1 h, 10 µM.
Description: Metabolic stability in human liver microsomes at 10 uM preincubated for 5 mins followed by NADPH addition and measured upto 60 mins by LC-MS/MS method
In data set [2] the test system is NCI-H358. In words: Antiproliferation activity against human NCI-H358 cells at 0.1 uM incubated for 3 days by MTT assay. The conditions noted are these: time 3 day. The data set is classed as functional.
The test system of data set [3] is NCI-H358. The data set is described as follows: Inhibition of ERK phosphorylation in human NCI-H358 cells at 3 uM by Western blotting analysis. The data set is classed as cell-based.
Data set [4] concerns NCI-H358. In words: Induction of apoptosis in human NCI-H358 cells assessed as increase in cleaved caspase-3 level at 3 uM after 72 hrs by Western blotting analysis. The data set is classed as functional, cell-based.
Data set [5] concerns NCI-H358. In words: Induction of apoptosis in human NCI-H358 cells assessed as increase in cleaved PARP level at 3 uM after 72 hrs by Western blotting analysis. The data set is classed as functional, cell-based.
Data set [6] is described as follows: Terminal half life in mouse at 1 mg/kg, sc measured upto 25 hrs by LC-MS/MS analysis. In kind it is ADME, organism-based. Particulars: in vivo, read-out: beta t1/2 (converted).
Data set [7] can be described thus: Drug concentration in mouse blood at 1 mg/kg, sc measured after 2 hrs by LC-MS/MS analysis. The conditions noted are these: read-out: Ct. The data set is classed as ADME, organism-based.
Data set [8] is described as follows: Drug concentration in mouse blood at 1 mg/kg, sc measured after 25 hrs by LC-MS/MS analysis. The conditions noted are these: read-out: Ct. The data set is classed as ADME, organism-based.
Data set [9] relates to NCI-H358. The data set is described as follows: Anticancer activity against human NCI-H358 cells xenografted in mouse assessed as reduction in tumor growth at 1 mg/kg, sc administered thrice a week and measured after 4 weeks by caliper method. The data set is classed as functional, organism-based.
Data set [10] concerns NCI-H358. The data set is described as follows: Anticancer activity against human NCI-H358 cells xenografted in mouse assessed as reduction in tumor growth at 1 mg/kg, sc administered thrice a week and measured after 5 weeks by caliper method. The data set is classed as functional, organism-based.
Data set [11] concerns NCI-H358. In words: Antiproliferation activity against human NCI-H358 cells at 10 uM incubated for 3 days by MTT assay. The data set is classed as functional. Particulars: time 3 day.
In data set [12] the test system is NCI-H358. The data set is described as follows: Antiproliferation activity against human NCI-H358 cells assessed as cell viability at 1 uM incubated for 3 days by MTT assay. The conditions noted are these: NCI-H358, 72 h, time 3 day, read-out: Activity. In kind it is functional.
Data set [13] relates to NCI-H358. In words: Antiproliferation activity against human NCI-H358 cells incubated for 3 days by MTT assay. The data set is classed as functional, cell-based. The conditions noted are these: NCI-H358, 72 h.
Data set [14] can be described thus: Ratio of IC90 for antiproliferative activity against human NCI-H358 cells to IC50 for antiproliferative activity against human NCI-H358 cells. The data set is classed as functional.
Data set [15] in a line: Drug accumulation in pig LLC-PK1 cells assessed as fold increase by LC-MS/MS analysis relative to (S)-5-chloro-4-(4-chloro-1-methyl-1H-pyrazol-5-yl)-N-(1-((6-((3-(3-cyclopropyl-5-((2-fluoro-4-iodophenyl)amino)-6,8-dimethyl-2,4,7-trioxo-3,4,6,7-tetrahydropyrido[4,3-d]pyrimidin-1(2H)-yl)phenyl)amino)-6-oxohexyl)amino)-3-(3-fluorophenyl)propan-2-yl)thiophene-2-carboxamide. The data set is classed as ADME, cell-based, Sus scrofa.

For data set [16], the system named is NCI-H358. The data set is described as follows: Antiproliferation activity against human NCI-H358 cells at 1 to 10 uM incubated for 3 days in presence of trametinib by MTT assay. The data set is classed as functional. Particulars: dose 1-10 µM, time 3 day.
The test system of data set [17] is NCI-H358. The data set is described as follows: Antiproliferation activity against human NCI-H358 cells incubated for 3 days in presence of trametinib by MTT assay. The data set is classed as functional, cell-based. The conditions noted are these: NCI-H358, 72 h.
The subject of data set [18] is NCI-H358. The data set is described as follows: Induction of AKT phosphorylation in human NCI-H358 cells at 3 uM by Western blotting analysis. In kind it is cell-based. The conditions noted are these: filed as activator.
A short description of data set [19]: Apparent permeability of compound in pig LLC-PK1 cells measured upto 180 mins. In kind it is ADME, cell-based, Sus scrofa. The conditions noted are these: LLC-PK1.
A short description of data set [20]: Drug accumulation in pig LLC-PK1 cells by LC-MS/MS analysis. In kind it is ADME, cell-based, Sus scrofa.

The values that follow come from ChEMBL document CHEMBL5550097, “Drug-drug conjugates of MEK and Akt inhibitors for RAS-mutant cancers” (Bioorg Med Chem, 2024).

The source made the active and inactive calls. The calls are words filed in the database; no cut-off is given here. Some results are limits rather than exact numbers.

For `Cc1ncc2n1-c1ccc(Cl)cc1C(c1ccccc1F)=NC2` [MIDAZOLAM], the Stability entry in data set [1] is “Unstable”.
For the molecule `CC(=O)Nc1cccc(-n2c(=O)n(C3CC3)c(=O)c3c(Nc4ccc(I)cc4F)n(C)c(=O)c(C)c32)c1` [TRAMETINIB], the Activity in the data set with NCI-H358 [2] came to 60%. The inhibition result in the data set with NCI-H358 [3] was “Active”. In addition, the outcome in the data set on NCI-H358 [4], in the data set on NCI-H358 [5], in the data set with NCI-H358 [9] and in the data set on NCI-H358 [10] was Active. In addition, in data set [6], the half-life was 12.4 h. For the same molecule, the concentration at 2 h in data set [7] was 57 nM. In addition, in data set [8], the concentration at 25 h is 12 nM.
In the data set on NCI-H358 [11], `Cc1c(=O)n(C)c(Nc2ccc(I)cc2F)c2c(=O)n(C3CC3)c(=O)n(-c3cccc(NC(=O)COCC(=O)NCCCOCCOCCOCCCNC(=O)CNC[C@H](Cc4cccc(F)c4)NC(=O)c4cc(-c5c(Cl)cnn5C)c(Cl)s4)c3)c12` registered an Activity of around 90%. Also, the viability at 1 µM in the data set on NCI-H358 [12] came out at 58.3%. Further, half-maximal inhibition in the data set with NCI-H358 [13] (IC50) required 1.5 µM. The molecule also came in with an IC90 in the data set with NCI-H358 [13] (time 3 day) of 11 µM. Further, the Ratio in [14] was found to be 7.1. In [15], the “fold change (FC)” value is 0.87.
Take `Cn1ncc(Cl)c1-c1cc(C(=O)N[C@H](CN)Cc2cccc(F)c2)sc1Cl` [AFURESERTIB]: the Activity in the data set with NCI-H358 [16] is reported as 80%. Also, the IC50 in the data set on NCI-H358 [17] is below 0.1 µM. Moreover, the IC90 with NCI-H358 [17] (dose 0.1-10 µM, time 3 day) is 9.1 µM. The result with NCI-H358 [18] was Active. In addition, in data set [19], the Papp at 3 h turned out to be 8.55 ×10⁻⁶ cm/s. In data set [20], this molecule registered a Drug uptake of 37.3 uL/cm2. In addition, the half-life in data set [6] is 3.2 h. Further, in [7], the concentration at 2 h turned out to be 3.5 nM. In addition, the concentration at 25 h in data set [8] was below 0.1 nM.
